{"source": "patent US20250152559A1", "about": "“METHODS FOR TREATING MYC-AMPLIFIED CANCER” (The Governing Council of the University of Toronto, priority 2023, published 2025)", "key": {"[1]": {"system": "ERK1/2, c-Jun and 4EBP1 phosphorylation in SU_MB002 cells", "experiment": "Phosphokinome proteome profiler array and time-course Western blotting", "assay_type": "cell-based, human", "procedure": "To identify signaling changes accompanying DHODH inhibition in an unbiased fashion, changes in the phosphokinome of SU_MB002 cells were measured after treatment with BAY. […] Time-course Western blotting confirmed that ERK1/2 becomes phosphorylated within 24 h of BAY treatment, peaks at 48 h, and then decreases in expression at 72 h (FIG. 3I-J). […] These findings corroborated previous work that had implicated ERK1/2 silencing of mTORC1-mediated translation in activating apoptosis in cancer cells under severe metabolic stress^38. Indeed, both pharmacological inhibition or DHODH KO in G3MB-MYC induced both Go cell cycle arrest, determined via propidium iodide assessment of DNA content, (FIG. 3K, FIG. 8N) and apoptosis, determined via cleaved caspase 3 expression (FIG. 3I-J, FIG. 8M) and Annexin V staining (FIG. 3L, FIG. 8O). Such findings were also consistent with the enrichment of the hallmark apoptosis gene set in DHODH KO SU_MB002 cells (FIG. 3G). […] Pyrimidine starvation induces a metabolic stress response, which activates ERK1/2-mediated signaling, leading to suppression of mTORC1 activity, and initiation of apoptosis.\nProtein lysates were isolated from approximately 500,000-1,000,000 cells. Pellets were rinsed with PBS and then lysed in RIPA buffer containing HALT™ protease inhibitor cocktail (ThermoFisher). Protein concentrations were quantified using the Bradford Assay (BioRad). Protein size was resolved via SDS-PAGE and then transferred to PVDF for immunoblotting. Rabbit polyclonal anti-DHODH (Cell Signaling Technologies; catalogue #80981), rabbit monoclonal anti-EGR1 (Cell Signaling Technologies; catalogue #4145), rabbit polyclonal anti-phospho-ERK1/2 Thr202/Tyr204 (Cell Signaling Technologies; catalogue #9101), rabbit monoclonal anti-phospho-4E-BP1 Thr37/46 (Cell Signaling Technologies; catalogue #2855) were used at a 1:1000 dilution. Mouse monoclonal anti-GAPDH (Abcam; catalogue #ab8245) was used at a 1:5000 dilution. For development, horse-radish peroxidase-conjugated secondary anti-mouse (BioRad; catalogue #1706516) and anti-rabbit antibodies (BioRad; catalogue #1706515) were used with BioRad Clarity ECL reagents. Quantification was performed by analyzing mean pixel density of each band and then normalizing to GAPDH loading control. The proteome profiler array was obtained from R&D systems (catalogue ARY003C) and performed according to manufacturing guidelines, using 400 μg cellular lysate for each sample."}, "[2]": {"experiment": "Mouse body weight / tolerability during treatment regimens", "assay_type": "in vivo", "procedure": "The treatment-naïve, patient-derived cell line, HD-MB03, was orthotopically engrafted into immunocompromised mice. Four days later, tumors were readily detectible via bioluminescence imaging. Thereafter mice were randomized into three cohorts, which were treated with either the vehicle or one of two BAY treatment regimens (R1 and R2; FIG. 5B)."}, "[3]": {"system": "HD-MB03 flank xenograft", "experiment": "Subcutaneous flank xenograft, IVIS, H&E and Ki67 IHC", "assay_type": "in vivo, mice", "procedure": "In parallel to these experiments, subcutaneous flank xenografts were engrafted into two cohorts of mice, which were treated with the vehicle or R2. […] To investigate the pharmacokinetics of BAY in vivo, its concentration in plasma and brain tissues of healthy mice was directly quantified using an LC-MS approach. BAY was detected in both brains and plasma of mice undergoing treatment, however the plasma concentrations exceeded those of the brain by approximately 10-fold (FIG. 5H-I). To determine whether treatment with BAY affects de novo pyrimidine biosynthesis in vivo, changes in pyrimidine metabolism were measured in the brain in comparison to tumor tissues from the flank (FIG. 5J-K). Although BAY treatment impacted de novo pyrimidine metabolism in vivo in both brain and tumor tissues, with a similar pattern observed in vitro (FIG. 4A), the effect size was stronger in peripheral tumor tissue in comparison to brain tissue. Such findings further reflect the limited capacity for BAY to accumulate within the brain.\nTo examine histological consequences of DHODH inhibition in vivo, the xenografts from the flanks of BAY- and vehicle-treated mice were surgically resected one day after administering the final dose.\nFFPE tissues were sectioned onto slides and then deparaffinized prior to analysis. Samples were stained with H&E for histological examination. In parallel, sections were blocked in 5% BSA (anti-Ki67, anti-4E-BP1 Thr37/46, anti-DHODH) or 5% NGS (anti-EGR1) and stained with primary antibody at 4° C. overnight. […]\nPDOX were generated by engrafting 25,000 tumor cells (both SU_MB002 and HD-MB03 cell lines), suspended in 5 μL PBS, directly into the mouse cerebrum. […] Tumor area was manually measured in H&E-stained sections of FFPE tissues using ImageJ.\nFor imaging via the in vivo imaging system (IVIS), mice were sedated with isoflurane gas and then administered luciferin substrate (150 mg/kg in PBS) via subcutaneous injection. After 10 minutes, bioluminescent signal (photons per second; p/s) was quantified using Living Image software."}, "[4]": {"conditions": "SU_MB002, BAY-treated vs vehicle, 48 h"}, "[5]": {"conditions": "SU_MB002, time-course Western blotting"}}}
{"smiles": "CCn1c(CO)nn(-c2cc(O[C@@H](C)C(F)(F)F)c(C(=O)Nc3c(F)cccc3Cl)cc2F)c1=O", "note": "[BAY2402234]", "values": [{"measurement": "phosphorylation of ERK1/2 (T202/Y204; T185/Y187)", "setting": "[1]; [4]", "value": "Increased phosphorylation"}, {"measurement": "phosphorylation of c-Jun (S63)", "setting": "[1]; [4]", "value": "Increased phosphorylation"}, {"measurement": "time of peak ERK1/2 phosphorylation", "setting": "[1]; [5]", "value": 48, "unit": "h"}, {"measurement": "time until ERK1/2 becomes phosphorylated", "setting": "[1]; [5]", "value": "≤ 24", "unit": "h"}, {"measurement": "phosphorylation of 4EBP1", "setting": "[1]; time-course BAY treatment", "value": "decreased in a time-dependent fashion"}, {"measurement": "tolerability over the entire treatment period", "setting": "[2]; 5 mg/kg", "value": "well-tolerated"}, {"measurement": "body weight", "setting": "[2]; R2, after the 10 mg/kg doses", "value": "marginal, temporary weight loss"}, {"measurement": "antitumoral response of flank tumors compared to orthotopic xenografts", "setting": "[3]; HD-MB03 flank, R2", "value": "much stronger antitumoral response"}, {"measurement": "tumor cell density (H&E)", "setting": "[3]; flank xenografts resected one day after final dose, vs vehicle", "value": "remarkably reduced"}, {"measurement": "Ki67 expression (IHC) in surviving tumor cells", "setting": "[3]; residual flank xenograft tissues", "value": "reduction in Ki67 expression"}]}
